Patent US7387788B1 (priority 2003, dated 2008)

Assays:
[1] = In vitro skin permeation, Franz cells, frozen human abdominal skin; assay type: in vitro ADME; conditions: Example 7
Procedure: Percutaneous absorption was measured using the in vitro cadaver skin finite dose technique. Cryo-preserved, human cadaver trunk skin was obtained from a skin bank and stored in water-impermeable plastic bags at <−70° C. until used.
Briefly, skin samples were prepared as follows.
The dermal cell was filled with receptor solution.
Experiments were performed under non-occlusive conditions.
Analysis of the samples was performed by HPLC.
Twenty-five micro liters of sample were injected.
Formulations 7.1 and 7.3 were made essentially as described above in the Materials and Methods. Formulation 7.1 and 7.2 are identical, but formulation 7.1 was tested on pig ear skin, and formulation 7.2 was tested on frozen human abdominal skin. Formulation 7.3 (Reference marketed product) was also tested on frozen human abdominal skin. Permeation studies used Franz cells as described in the Materials and Methods.
Individual gel amounts applied to tested skin samples were approximately 10 mg. Studies were performed according to OECD (Organization for Economic Cooperation and Development) guidelines (Organization for Economic Co-operation and Development (OECD), Environment Directorate. “Guidance document for the conduct of skin absorption studies,” OECD series on testing and assessment, No. 28. Paris, version 5 Mar. 2004).

[2] = in an alcohol/water solvent; cited from earlier work
[3] = cited from earlier work
[4] = In vitro skin permeation, Franz cells, finite dose, non-occlusive, pig ear skin; conditions: topical or ocular, 10 mg, pH 7.4
Procedure: A finite dose (for example: 4-7 mg/cm^2) of formulation is applied to the outer surface of the skin and drug absorption is measured by monitoring its rate of appearance in the receptor solution bathing the inner surface of the skin. Data defining total absorption, rate of absorption, as well as skin content can be accurately determined in this model.
Pig skin can be prepared essentially as described below for human skin.
Prior to the experiment, skin was removed from the bag, placed in water (approximately 37° C.) for five minutes, and then cut into sections large enough to fit on 1 cm^2 Franz Cells (Crown Glass Co., Somerville, N.J.). Briefly, skin samples were prepared as follows. A small volume of phosphate buffered saline (PBS) was used to cover the bottom of the Petri dishes. Skin disks generally depleted of fat layers were placed in the Petri dishes for hydration. A Stadie-Riggs manual tissue microtome was used for slicing excised skin samples. Approximately 2 mL of PBS was placed into the middle cavity of the microtome as slicing lubricant. Skin disks were placed, dermal side up, into the middle cavity of the microtome. Filter paper was soaked with PBS, inserted in the cavity just above the skin disk. The filter paper prevented the dermis from sliding onto the top of the cutting block and helped to insure more precise cutting. […]

[5] = oral administration; cited from earlier work

SMILES	change of transdermal in vitro bioavailability, frozen human skin versus fresh pig skin ([1]; p=0.009) [%]	bioavailability at 16 h, 1.5 % FBE ([1]; topical or ocular, 10 mg, pH 7.4, frozen human skin, gel of Table 13 (formulation 7.2)) [%]	apparent pKa of nicotine [2]	Oral bioavailability [3]	bioavailability at 16 h, 1.5 % FBE [4] [%]	fraction of the drug absorbed when administered orally [5]
CN1CCC[C@H]1c1cccnc1 [nicotine, 1-methyl-2-(3-pyridyl)pyrrolidone]	−52	18	7.7	about 30%	38	
NCCCC(O)(P(=O)(O)O)P(=O)(O)O [sodium alendronate]						about 0.6%
